Reference: PMC10447463, “Data-mining unveils structure–property–activity correlation of viral infectivity enhancing self-assembling peptides” (Nature Communications, 2023)
Where two headings read alike, the source gives them in different places.

Experiments:
[1] = system: HIV-1 infection of TZM-bl cells; assay: HIV-1 infectivity enhancement assay, β-galactosidase luminescence; format: cell-based; conditions: for Rel-EFC / Log10 Infection Rel EFC: 1.3 µM peptide; for Rel-EFC: infection relative to EF-C (QCKIKQIINMWQ = 1); for Log10 Infection Rel EFC: log10 of infection relative to EF-C; for Log Infectivity: Log10 infection relative to EF-C, TZM-bl cells, asymmetric std dev errors; for Log10 Infection Rel EF-C: HIV-1 infection of TZM-bl cells; for Log10 of Rel to EFC (Feb2021): Log10 of infection relative to EF-C, all peptides of FigS16; for Abs. Inf.: absolute infection signal, HIV-1 on TZM-bl cells, β-galactosidase luminescence; for Log10 Inf. rel. to EF-C: log10 of HIV-1 infection of TZM-bl cells relative to EF-C (EF-C = 0)
[2] = Turbidity, derived count rate of scattered light; format: physicochemical; conditions: for Count Rate / kcps: derived count rate of scattered light at 633 nm, 173°, from zeta-potential measurement, 0.1 mg/mL in 1 mM KCl after 1 d at 1 mg/mL in PBS, turbidity / microscopic aggregation, mean of triplicate
Procedure, shortened: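 One-day room-temperature aggregation at 1 mg/mL in PBS (pH 7.4) preceded measurement; samples then went into 1 mM KCl. Triplicates per sample, two independent experiments averaged.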

[3] = format: physicochemical; parameters: key to Fibril / Fibril Formation / TEM 2cat / Fibril: 1 = fibrils present; 0 non-fibrillar structures; conditions: for Fibril / Fibril Formation: 1 mg/mL, uranyl acetate stain, qualitative
[4] = Fig. S7 panel A (plotted against β-sheet content)
[5] = Log10 of infection rate relative to EF-C, Figure 3A source data
[6] = infection rate relative to EF-C, log10, data of Figure 2D
[7] = infection rate relative to EF-C, log10, source data of Figure 2C
[8] = Log10 of derived count rate of scattered light (turbidity)
[9] = turbidity, Log10 of derived count rate of scattered light, Figure 3A source data
[10] = turbidity, log10 of derived count rate of scattered light
[11] = TEM, 1 = fibrils present, 0 = non-fibrillar
[12] = TEM, 1 = fibrils present, 0 = non-fibrillar structures
[13] = category: fibrils present or non-fibrillar
[14] = Fig. S7 panel B (plotted against CR), rounded to two decimals
[15] = logarithm of count rate in kcps
[16] = FigS12 panel A, fibril category by TEM

| Substance | Rel-EFC [1] | Log10 Infection Rel EFC [1] | Log Infectivity [1, 4] | Log10 Infection Rel EF-C [1, 5] | Log10 Infection Rel EF-C [1, 6] | Log10 Infection Rel EF-C [1, 7] | Log10 of Rel to EFC (Feb2021) [1] | Abs. Inf. [1] | Log10 Inf. rel. to EF-C [1] | Log10 Count Rate [2, 8] | Count Rate / kcps [2] [kcps] | Log10 Count Rate [2, 9] | Log10 Count Rate [2, 10] | TEM 2cat ([3]; Fig S10 panel D) | Fibril / Fibril Formation ([3]; TEM) | Fibril [3, 11] | Fibril [3, 12] | TEM 2cat [3, 13] | Log Infectivity [1, 14] | Log10 Count Rate [2, 15] | further results |
| --- | --- | --- | --- | --- | --- | --- | --- | --- | --- | --- | --- | --- | --- | --- | --- | --- | --- | --- | --- | --- | --- |
| QCKIKQIINM | 0,35 | -0,46 | -0.4555 | -0.46 | -0.4555 | -0.4555 | -0.46 | 11186.66667 | -0.4555 | 4.313 | 20551 | 4.313 | 4.313 | 1 | 1 | 1 | 1 | 1 | – | – | – |
| HIHIQIC | 0,27 | -0,57 | -0.5672 | -0.57 | -0.5672 | -0.5672 | -0.57 | 4621 | -0.5672 | 2.416 | 261 | 2.416 | 2.416 | 1 | 1 | 1 | 1 | 1 | -0.57 | 2.416 | Fibril ([3]; Fig S10 panel E): 1 |
| KIKQIIN | 0,04 | -1,4 | -1.4 | -1.4 | -1.4 | -1.4 | – | – | -1.4 | 1.806 | 64 | 1.806 | 1.806 | 0 | 0 | 0 | 0 | – | – | 1.806 | TEM 2cat [3, 16]: 0; Fibril ([3]; FigS12 panel B, TEM): 0 |
| KYKGAIIGNIK | 0 | -2,51 | -2.508 | -2.51 | -2.508 | -2.508 | – | 80 | -2.508 | 1.644 | 44 | 1.644 | 1.644 | 0 | 0 | 0 | 0 | – | – | – | TEM 2cat [3, 16]: 0; Fibril ([3]; FigS12 panel B, TEM): 0 |
| KIKIQIAMWQ | 0,39 | -0,41 | -0.4109 | -0.41 | -0.4109 | -0.4109 | -0.41 | – | -0.4109 | 2.733 | 541 | 2.733 | 2.733 | 1 | 1 | 1 | 1 | 1 | – | – | – |
| RGDKIRGDKI | 0,01 | -2,13 | -2.126 | -2.13 | -2.126 | -2.126 | – | 163.3 | -2.126 | 2.456 | 286 | 2.456 | 2.456 | 0 | 0 | 0 | 0 | – | -2.13 | – | Fibril ([3]; Fig S10 panel E): 0; TEM 2cat [3, 16]: 0; Fibril ([3]; FigS12 panel B, TEM): 0 |
| CKFKFQFNM | 1,24 | 0,09 | 0.09417 | 0.09 | 0.09417 | 0.09417 | 0.09 | 28183.33333 | 0.09417 | 3.347 | 2224 | 3.347 | 3.347 | 1 | 1 | 1 | 1 | 1 | 0.09 | 3.347 | Fibril ([3]; Fig S10 panel E): 1 |
| FDPFDPFDP | 0,02 | -1,63 | -1.6317 | -1.63 | -1.6317 | -1.6317 | – | 346.7 | -1.6317 | 2.412 | 258 | 2.412 | 2.412 | 0 | 0 | 0 | 0 | – | – | – | TEM 2cat [3, 16]: 0; Fibril ([3]; FigS12 panel B, TEM): 0 |
| KFKFQFNMWQ | 0,76 | -0,12 | -0.1164 | -0.12 | -0.1164 | -0.1164 | -0.12 | 20676.66667 | -0.1164 | 2.866 | 735 | 2.866 | 2.866 | 1 | 1 | 1 | 1 | 1 | -0.12 | 2.866 | Fibril ([3]; Fig S10 panel E): 1 |
